According to the NIST ThermoML archive (doi:10.1021/acs.jced.5b00918):
Numbers after ± are expanded uncertainties.

Key:
[1] = 101.33 kPa, Buoyancy - hydrostatic balance
[2] = refractive index (Na D-line) (dimensionless); conditions: 101.33 kPa, Liquid, Standard Abbe refractometry

mass density ([1]; 293.2 K, Crystal) [kg/m3] | refractive index ([2]; 293.2 K) | mass density ([1]; 293.2 K, Liquid) [kg/m3] | refractive index ([2]; 314.5 K) | mass density ([1]; 314.5 K, Liquid) [kg/m3] | SMILES
1332 ± 3 | – | – | – | – | Oc1ccc(O)cc1 [1,4-benzenediol]
– | 1.40065 ± 0.00054 | 811 ± 2 | – | – | CCCCC(C)=O [2-hexanone]
– | 1.4288 ± 0.0005 | 823.6 ± 0.3 | – | – | CCCCCCCCO [octan-1-ol]
– | – | – | 1.54182 ± 0.00051 | 1058.1 ± 0.3 | Oc1ccccc1 [phenol]
– | 1.3842 ± 0.0005 | 889 ± 2 | – | – | CCCOC(C)=O [propyl ethanoate]
